Measurements as given in patent US6043252A, “Carboline derivatives” (Icos Corporation, priority 1998, dated 2000).
No end group written: not given here.

What was measured:
[1] = system: Rat aortic smooth muscle cells (RSMC); assay: cGMP level measurements in rat aortic smooth muscle cells stimulated with ANF; assay type: cell-based; conditions: compound 30 minutes at 37° C., then ANF (100 nM) 10 minutes, dose giving half of the stimulation at saturating concentrations
Experimental: Rat aortic smooth muscle cells (RSMC), prepared according to Chamley et al., Cell Tissue Res., 177, 503-522 (1977), were used between the 10th and 25th passage at confluence in 24-well culture dishes. Culture media was aspirated and replaced with PBS (0.5 ml) containing the compound tested at the appropriate concentration. After 30 minutes at 37° C., particulates guanylate cyclase was stimulated by addition of ANF (100 nM) for 10 minutes. At the end of incubation, the medium was withdrawn, and two extractions were performed by addition of 65% ethanol (0.25 ml). The two ethanolic extracts were pooled and evaporated until dryness, using a Speed-vac system. CGMP was measured after acetylation by scintillation proximity immunoassay (AMERSHAM). The EC50 values are expressed as the dose-giving half of the stimulation at saturating concentrations.

[2] = system: conscious spontaneously hypertensive rats (SHRs); assay: Hypotensive effect in conscious spontaneously hypertensive rats; assay type: in vivo, rat; conditions: 5 mg/kg orally in 5% DMF and 95% olive oil, AUC from 0 to 5 hours
Experimental: The hypotensive effects of compounds according to the invention as identified in Table 2 were studied in conscious spontaneously hypertensive rats (SHRs). The compounds were administered orally at a dose of 5 mg/kg in a mixture of 5% DMF and 95% olive oil. Blood pressure was measured from a catheter inserted in the carotid artery and recorded for five hours after administration. The results are expressed as Area Under the Curve (AUC from 0 to 5 hours, mmhg.hour) of the fall in blood pressure over time.

human recombinant PDE5 = human recombinant PDE5 (Homo sapiens, UniProt O76074); assay: Inhibitory effect on cGMP-PDE (one-step PDE5 assay); assay type: biochemical; conditions: 0.15 μM 8-[H^3 ]-cGMP, 2% DMSO, 30 minutes
Experimental: CGMP-PDE activity of compounds of the present invention was measured using a one-step assay adapted from Wells et al., Biochim. Biophys. Acta, 384, 430 (1975). The reaction medium contained 50 mM Tris-HCl, pH 7.5, 5 mM magnesium acetate, […] 51-Nucleotidase, 1 mM EGTA, and 0.15 μM 8-[H^3 ]-cGMP. The enzyme used was a human recombinant PDE5 (ICOS Corp., Bothell, Wash.).
Compounds of the invention were dissolved in DMSO finally present at 2% in the assay.

MED = conditions: clinical; oral, sublingual, intraurethral, i.c. or topical; cited from earlier work
PDE6 = conditions: cited from earlier work

EC50 [1] | Compound | SHR AUC PO (Area Under the Curve of the fall in blood pressure over time) [2] | other results
450 nM | CC(=O)Nc1ccc(/C=C/C(=O)N2CCc3c([nH]c4ccccc34)C2c2ccc3c(c2)OCO3)cc1 (stereo not drawn) [Example 14, (E)-N-[4-[3-Oxo-3-(1-(3,4-methylenedioxyphenyl)-1,3,4,9-tetrahydro-β-carbolin-2-yl)propenyl]phenyl]acetamide] | 128 mmHG · h | IC50 (human recombinant PDE5): 5 nM
300 nM | Nc1ccc(/C=C/C(=O)N2CCc3c([nH]c4ccccc34)C2c2ccc3c(c2)OCO3)cc1 (stereo not drawn) [Example 25, (E)-1-[1-(3,4-Methylenedioxyphenyl)-1,3,4,9-tetrahydro-β-carbolin-2-yl]-3-(4-aminophenyl)propene-1-one] | 72 mmHG · h | IC50 (human recombinant PDE5): 72 nM
– | O=C(/C=C/c1ccc([N+](=O)[O-])cc1)N1CCc2c([nH]c3ccccc23)C1c1ccc2c(c1)OCO2 (stereo not drawn) [Example 26, (E)-1-[1-(3,4-Methylenedioxyphenyl)-1,3,4,9-tetrahydro-β-carbolin-2-yl]-3-(4-nitrophenyl)propene-1-one] | 102 mmHG · h | –
300 nM | COC(=O)c1ccc(/C=C/C(=O)N2CCc3c([nH]c4ccccc34)C2c2ccc3c(c2)OCO3)cc1 (stereo not drawn) [Example 28, (E)-4-[3-Oxo-3-[1-(3,4-methylenedioxyphenyl)-1,3,4,9-tetrahydro-β-carbolin-2-yl]-propenyl]benzoic Acid, Methyl Ester] | 114 mmHG · h | IC50 (human recombinant PDE5): 55 nM
1000 nM | O=C(O)c1ccc(/C=C/C(=O)N2CCc3c([nH]c4ccccc34)C2c2ccc3c(c2)OCO3)cc1 (stereo not drawn) [Example 31, (E)-4-[3-Oxo-3-[1-(3,4-methylenedioxyphenyl)-1,3,4,9-tetrahydro-β-carbolin-2-yl]-propenyl]benzoic acid] | 86 mmHG · h | IC50 (human recombinant PDE5): 4 nM
400 nM | CC(C)C(=O)Nc1ccc(/C=C/C(=O)N2CCc3c([nH]c4ccccc34)C2c2ccc3c(c2)OCO3)cc1 (stereo not drawn) [Example 55, (E)-N-[4-[3-Oxo-3-(1-(3,4-methylenedioxyphenyl)-1,3,4,9-tetrahydro-β-carbolin-2-yl)propenyl]phenyl]isobutyramide] | 97 mmHG · h | IC50 (human recombinant PDE5): 40 nM
1800 nM | CN(C)CCOc1ccc(/C=C/C(=O)N2CCc3c([nH]c4ccccc34)C2c2ccc3c(c2)OCO3)cc1 (stereo not drawn) [Example 61, (E)-1-[1-(3,4-Methylenedioxyphenyl)-1,3,4,9-tetrahydro-β-carbolin-2-yl]-3-[4-(2-dimethylaminoethoxy)phenyl]propene-1-one] | 95 mmHG · h | IC50 (human recombinant PDE5): 20 nM
– | O=C(/C=C/c1ccccc1)N1CCc2c([nH]c3ccccc23)C1c1ccc2c(c1)CCO2 (stereo not drawn) [Example 112, (E)-1-[1-(2,3-Dihydrobenzofuran-5-yl)-1,3,4,9-tetrahydro-β-carbolin-2-yl]-3-phenylpropene-1-one] | 71 mmHG · h | –
– | CN(C)CCOc1ccc(/C=C/C(=O)N2CCc3c([nH]c4ccccc34)C2c2ccc3c(c2)CCO3)cc1 (stereo not drawn) [Example 122] | 76 mmHG · h | –
100 nM | CN(C)CCOc1ccc(/C=C/C(=O)N2CCc3c([nH]c4ccccc34)[C@H]2c2ccc3c(c2)CCO3)cc1 [Example 140] | 105 mmHG · h | –
1500 nM | O=C(/C=C/c1ccc(OCCN2CCCC2)cc1)N1CCc2c([nH]c3ccccc23)C1c1ccc2c(c1)CCO2 (stereo not drawn) [Example 142] | 74 mmHG · h | –
< 1000 nM | CN1CCC[C@H]1COc1ccc(/C=C/C(=O)N2CCc3c([nH]c4ccccc34)[C@H]2c2ccc3c(c2)CCO3)cc1 [Example 156] | 57 mmHG · h | –
1500 nM | CCN(CC)CCOc1ccc(/C=C/C(=O)N2CCc3c([nH]c4ccccc34)[C@H]2c2ccc3c(c2)CCO3)cc1 [Example 164] | – | –
< 1000 nM | CC(COc1ccc(/C=C/C(=O)N2CCc3c([nH]c4ccccc34)[C@H]2c2ccc3c(c2)CCO3)cc1)N(C)C (stereo partly drawn) [Example 165] | – | –
– | CCN(C)CCOc1ccc(/C=C/C(=O)N2CCc3c([nH]c4ccccc34)[C@H]2c2ccc3c(c2)CCO3)cc1 [Example 175, (E)-(R)-1-[1-(2,3-Dihydrobenzofuran-5-yl)-1,3,4,9-tetrahydro-β-carbolin-2-yl]-3-(4-(2-(ethylmethylamino)ethoxy)phenyl)propene-1-one] | 52 mmHG · h | –
< 1000 nM | CN(C)C[C@@H](O)COc1ccc(/C=C/C(=O)N2CCc3c([nH]c4ccccc34)C2c2ccc3c(c2)CCO3)cc1 (stereo partly drawn) [Example 177, (E)-(R)-1-[1-(2,3-Dihydrobenzofuran-5-yl)-1,3,4,9-tetrahydro-β-carbolin-2-yl]-3-(4-(3-dimethylamino-2-hydroxypropoxy)phenyl)propene-1-one] | 100 mmHG · h | –
3500 nM | CN(C)CCNc1ccc(/C=C/C(=O)N2CCc3c([nH]c4ccccc34)[C@H]2c2ccc3c(c2)CCO3)cc1 [Example 180] | – | –
2000 nM | NCCOc1ccc(/C=C/C(=O)N2CCc3c([nH]c4ccccc34)[C@H]2c2ccc3c(c2)CCO3)cc1 [Example 181, (E)-(R)-1-[1-(2,3-Dihydrobenzofuran-5-yl)-1,3,4,9-tetrahydro-β-carbolin-2-yl]-3-(4-(2-aminoethoxy)phenyl)propene-1-one] | 77 mmHG · h | –
< 1000 nM | O=C(/C=C/c1ccc(O)cc1)N1CCc2c([nH]c3ccccc23)[C@H]1c1ccc2c(c1)CCO2 [Example 182, (E)-(R)-1-[1-(2,3-Dihydrobenzofuran-5-yl)-1,3,4,9-tetrahydro-β-carbolin-2-yl]-3-(4-hydroxyphenyl)propene-1-one] | – | –
2000 nM | CN1CCN(c2ccc(/C=C/C(=O)N3CCc4c([nH]c5ccccc45)[C@H]3c3ccc4c(c3)CCO4)cc2)CC1 [Example 183] | – | –
3000 nM | CNCc1ccc(/C=C/C(=O)N2CCc3c([nH]c4ccccc34)[C@H]2c2ccc3c(c2)CCO3)cc1 [Example 184] | – | –
< 1000 nM | O=C(/C=C/c1ccc(OCCN2CCCCC2)cc1)N1CCc2c([nH]c3ccccc23)[C@H]1c1ccc2c(c1)CCO2 [Example 188, (E)-(R)-1-[1-(2,3-Dihydrobenzofuran-5-yl)-1,3,4,9-tetrahydro-β-carbolin-2-yl]-3-(4-(2-piperidin-1-ylethoxy)phenyl)propene-1-one] | 86 mmHG · h | –
< 1000 nM | CNCCOc1ccc(/C=C/C(=O)N2CCc3c([nH]c4ccccc34)[C@H]2c2ccc3c(c2)CCO3)cc1 [Example 191, (E)-(R)-1-[1-(2,3-Dihydrobenzofuran-5-yl)-1,3,4,9-tetrahydro-carbolin-2-yl]-3-[4-(2-methylaminoethoxy)phenyl]propene-1-one] | 84 mmHG · h | –
– | CCCCC[C@H](O)/C=C/[C@H]1[C@H](O)CC(=O)[C@@H]1CCCCCCC(=O)O [alprostadil] | – | efficacy in MED (MED): not effective in all patients
– | CN1CCc2cccc3c2[C@H]1Cc1ccc(O)c(O)c1-3 [apomorphine] | – | efficacy in MED (MED): neither compound has demonstrated efficacy across a broad range of subjects
– | Cc1ccc(N(CC2=NCCN2)c2cccc(O)c2)cc1 [phentolamine] | – | efficacy in MED (MED): neither compound has demonstrated efficacy across a broad range of subjects
– | CCCc1nn(C)c2c(=O)[nH]c(-c3cc(S(=O)(=O)N4CCN(C)CC4)ccc3OCC)nc12 [sildenafil] | – | selectivity with respect to PDE6 (PDE6): little selectivity with respect to PDE6; efficacy in MED (MED): has shown efficacy in oral administration clinical trials for MED
– | vasoactive intestinal polypeptide (VIP): vasoactive intestinal polypeptide (VIP) (HSDAVFTDNYTRLRKQMAVKKYLNSILN; ends and bridges not checked; UniProt P01282 125-152, looked up) | – | efficacy in MED (MED): active i.c.
